The values that follow come from PubChem BioAssay AID206 (DTP/NCI, 2004).

Values joined by “and” are separate entries in the source; they are usually repeats but may differ in a detail not shown here. Identical values can stand only once. Records with an inconclusive call do not appear.

This experiment deals with nude mice, HT29 intrarenal xenograft, tumor weight T/C. Nature of the experiment: NCI In Vivo Anticancer Drug Screen. Data for tumor model HT29;CX-1 Human Adenocarcinoma (MER+) (intrarenal inoculation) in NU/NU Swiss (nude) mice. The settings on record: endpoint: mean tumor weight change, higher = larger tumour. In a few lines:
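Compounds were given to mice carrying transplantable tumors; a vehicle-dosed group served as control. The endpoint measured in each group was compared as a T/C quotient.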

[1] abbreviates: dose: 150.0 mg/kg/injection, schedule: Q04DX004 (sc), vehicle: Klucel (hydroxypropylcellulose) (HPC).
Where [2] appears, read: dose: 600.0 mg/kg/injection, schedule: Q04DX004 (sc), vehicle: Klucel (hydroxypropylcellulose) (HPC).
[3] abbreviates: dose: 200.0 mg/kg/injection, schedule: Q01DX010 (sc), vehicle: saline with Tween-80.
[4] abbreviates: dose: 400.0 mg/kg/injection, schedule: Q01DX010 (sc), vehicle: saline with Tween-80.
The mark [5] stands for this setting: dose: 800.0 mg/kg/injection, schedule: Q01DX010 (sc), vehicle: saline with Tween-80.
Setting [6] is: dose: 75.0 mg/kg/injection, schedule: Q04DX004 (sc), vehicle: saline with Tween-80.
The mark [7] stands for this setting: dose: 150.0 mg/kg/injection, schedule: Q04DX004 (sc), vehicle: saline with Tween-80.
Setting [8] is: dose: 300.0 mg/kg/injection, schedule: Q04DX004 (sc), vehicle: saline with Tween-80.
The mark [9] stands for this setting: dose: 0.13 mg/kg/injection, schedule: Q01DX010 (sc), vehicle: saline.
Where [10] appears, read: dose: 0.5 mg/kg/injection, schedule: Q01DX010 (sc), vehicle: saline.

For `O=c1s[se]c2ccccc12`, the T/C runs as follows: (dose: 75.0 mg/kg/injection, schedule: Q04DX004 (sc), vehicle: Klucel (hydroxypropylcellulose) (HPC)) 108 % of control; under setting [1], 48 % of control; under setting [2], 74 % of control.

`C[C@]12C=CC(=O)C=C1CC[C@@H]1[C@@H]2C(=O)C[C@@]2(C)[C@H]1CC[C@]2(O)C(=O)CO`: the T/C is, setting by setting: under setting [1], 18 % of control; under setting [2], 27 % of control; (dose: 1200.0 mg/kg/injection, schedule: Q04DX004 (sc), vehicle: Klucel (hydroxypropylcellulose) (HPC)) 19 % of control.

Consider `Cn1cnc([N+](=O)[O-])c1[Se]c1nc(N)nc2nc[nH]c12`, for which the T/C (dose: 50.0 mg/kg/injection, schedule: Q01DX010 (sc), vehicle: water) is 100 % of control.

Turning to `CO[C@H]1Nc2c(ccc(C)c2O)C(=O)N2C=C(/C=C/C(N)=O)C[C@@H]12`, the T/C by setting is: (dose: 0.5 mg/kg/injection, schedule: Q04DX004 (sc), vehicle: saline + alcohol) 98 % of control; (dose: 1.0 mg/kg/injection, schedule: Q04DX004 (sc), vehicle: saline + alcohol) 54 % of control.

As for `CCOC(=O)c1ccc(NC(=O)Nc2nccs2)cc1`, the T/C was 54 % of control (dose: 100.0 mg/kg/injection, schedule: Q01DX010 (sc), vehicle: saline with Tween-80); 58 % of control under setting [3]; 74 % of control under setting [4]; 67 % of control under setting [5].

As for `COc1cc2cc(c1Cl)N(C)C(=O)CC(OC(=O)CC(C)C)C1(C)OC1C(C)C1CC(O)(NC(=O)O1)C(OC)/C=C/C=C(C)C2` (stereo not drawn), the T/C is 87 % of control and 99 % of control (dose: 125.0 micrograms/kg/injection, schedule: Q04DX004 (sc), vehicle: saline + alcohol); 60 % of control (dose: 500.0 micrograms/kg/injection, schedule: Q04DX004 (sc), vehicle: saline + alcohol).

For `ClCc1ccc2ccccc2n1`, the T/C by setting is: under setting [6], 82 % of control; under setting [7], 88 % of control; under setting [8], 86 % of control; (dose: 600.0 mg/kg/injection, schedule: Q04DX004 (sc), vehicle: saline with Tween-80) 53 % of control.

`O=c1[nH]c(=O)n(C2CC(O)C(CO)O2)cc1C(F)(F)F` (stereo not drawn): the T/C is 202 % of control (dose: 100.0 mg/kg/injection, schedule: Q01DX010 (sc), vehicle: saline); 104 % of control (dose: 200.0 mg/kg/injection, schedule: Q01DX010 (sc), vehicle: saline); 73 % of control (dose: 400.0 mg/kg/injection, schedule: Q01DX010 (sc), vehicle: saline).

On to `O=C(N/N=C\c1cc(Br)cc(Br)c1O)N/N=C/c1cc(Br)cc(Br)c1O`, for which the T/C under setting [3] was 71 % of control and 94 % of control; the T/C under setting [4] was 43 % of control and 56 % of control; the T/C under setting [5] was 76 % of control.

Turning to `COC1=C(N)C(=O)c2nc(-c3nc(C(=O)O)c(C)c(-c4ccc(OC)c(OC)c4O)c3N)ccc2C1=O`, the T/C is -33 % of control under setting [9] and -10 % of control under setting [10].

Consider `C[CH2][Pb]([CH2]C)([CH2]C)[O]C(=O)COc1ccccc1`, for which the T/C is 100 % of control (dose: 4.5 mg/kg/injection, schedule: Q04DX004 (sc), vehicle: saline with Tween-80); 114 % of control (dose: 9.0 mg/kg/injection, schedule: Q04DX004 (sc), vehicle: saline with Tween-80); 65 % of control (dose: 18.0 mg/kg/injection, schedule: Q04DX004 (sc), vehicle: saline with Tween-80).

With `CC(C)CCCCCCCCCCCCC(=O)NCC(=O)NC1C(C)OC(Nc2ncnc3nc[nH]c23)C(O)C1O` (stereo not drawn), the T/C (dose: 2.0 mg/kg/injection, schedule: Q01DX010 (sc), vehicle: distilled water + Tween-80) is -35 % of control; the T/C (dose: 2.0 mg/kg/injection, schedule: Q01DX010 (sc), vehicle: saline with Tween-80) was -6 % of control; the T/C (dose: 4.0 mg/kg/injection, schedule: Q04DX004 (sc), vehicle: distilled water + Tween-80) was 37 % of control; the T/C (dose: 8.0 mg/kg/injection, schedule: Q01DX010 (sc), vehicle: distilled water + Tween-80) was 20 % of control; the T/C (dose: 8.0 mg/kg/injection, schedule: Q04DX004 (sc), vehicle: distilled water + Tween-80) is 36 % of control; the T/C (dose: 16.0 mg/kg/injection, schedule: Q01DX010 (sc), vehicle: saline with Tween-80) is 23 % of control.

`Cc1cc2c(c3oc(C4(C)OC4C4OC4C)cc(=O)c13)C(=O)c1c(O)c(C3CC(C)(N(C)C)C(O)C(C)O3)cc(C3CC(N(C)C)C(O)C(C)O3)c1C2=O` (stereo not drawn): the T/C under setting [9] was 50 % of control.

For `CC(C)CC(=O)NC(C(=O)NC(C(=O)NC(CC(C)C)C(O)CC(=O)NC(C)C(=O)NC(CC(C)C)C(O)CC(=O)O)C(C)C)C(C)C` (stereo not drawn), the T/C was 102 % of control under setting [1]; 87 % of control (dose: 300.0 mg/kg/injection, schedule: Q04DX004 (sc), vehicle: Klucel (hydroxypropylcellulose) (HPC)); 69 % of control under setting [2].

Turning to `O=NNc1ccccn1`, the T/C under setting [9] is 150 % of control; the T/C (dose: 0.25 mg/kg/injection, schedule: Q01DX010 (sc), vehicle: saline) is 176 % of control; the T/C under setting [10] is 112 % of control; the T/C (dose: 1.0 mg/kg/injection, schedule: Q01DX010 (sc), vehicle: saline) was 208 % of control; the T/C (dose: 4.0 mg/kg/injection, schedule: Q01DX010 (sc), vehicle: saline) is 105 % of control; the T/C (dose: 32.0 mg/kg/injection, schedule: Q01DX010 (sc), vehicle: saline) was 90 % of control.

As for `OCC1OC(n2cnc3c(Cl)ncnc32)C(O)C1O` (stereo not drawn), the T/C (dose: 300.0 mg/kg/injection, schedule: Q04DX004 (sc), vehicle: saline) was 94 % of control; the T/C (dose: 600.0 mg/kg/injection, schedule: Q04DX004 (sc), vehicle: saline) was 84 % of control; the T/C (dose: 1200.0 mg/kg/injection, schedule: Q04DX004 (sc), vehicle: saline) is 150 % of control.

`O=C1SC(c2ccccc2)=S=C1c1ccccc1`: the T/C reads like this: under setting [8], 102 % of control; (dose: 1200.0 mg/kg/injection, schedule: Q04DX004 (sc), vehicle: saline with Tween-80) 90 % of control.

As to `COc1cccc2c1C(=O)c1c(O)c3c(c(O)c1C2=O)C[C@@](O)(/C(C)=N/NC(=O)c1ccc(Cl)cc1)C[C@@H]3OC1CC(N)C(O)C(C)O1` (stereo partly drawn), the T/C is 88 % of control (dose: 10.0 mg/kg/injection, schedule: Q04DX004 (sc), vehicle: water); 39 % of control (dose: 20.0 mg/kg/injection, schedule: Q04DX004 (sc), vehicle: water); 25 % of control (dose: 80.0 mg/kg/injection, schedule: Q04DX004 (sc), vehicle: water).

For `COc1cccc2c1C(=O)c1c(O)c3c(c(O)c1C2=O)CC(O)(/C(C)=N/NC(=O)CCCCC(=O)N/N=C(\C)C1(O)Cc2c(O)c4c(c(O)c2C(OC2CC(N)C(O)C(C)O2)C1)C(=O)c1c(OC)cccc1C4=O)CC3OC1CC(N)C(O)C(C)O1` (stereo not drawn), the T/C is 66 % of control (dose: 12.5 mg/kg/injection, schedule: Q04DX004 (sc), vehicle: water); 98 % of control (dose: 25.0 mg/kg/injection, schedule: Q04DX004 (sc), vehicle: water); 104 % of control (dose: 50.0 mg/kg/injection, schedule: Q04DX004 (sc), vehicle: water); 152 % of control (dose: 100.0 mg/kg/injection, schedule: Q04DX004 (sc), vehicle: water).

On to `CC(C)CCCCCCCCCCCCC(=O)NCC(=O)NC1C(O)C(O)C(Nc2ncnc3nc[nH]c23)OC1C(O)CO` (stereo not drawn), for which the T/C runs as follows: (dose: 0.75 mg/kg/injection, schedule: Q04DX004 (sc), vehicle: suspension in saline) 85 % of control; (dose: 0.8 mg/kg/injection, schedule: Q01DX010 (sc), vehicle: saline) 21 % of control and 24 % of control; (dose: 1.5 mg/kg/injection, schedule: Q04DX004 (sc), vehicle: suspension in saline) 47 % of control; (dose: 3.0 mg/kg/injection, schedule: Q04DX004 (sc), vehicle: suspension in saline) 10 % of control and 23 % of control; (dose: 6.0 mg/kg/injection, schedule: Q04DX004 (sc), vehicle: suspension in saline) 15 % of control.

Consider `CCOC(=O)C(N)C[S][Sn]([CH3])([CH3])[Cl]` (stereo not drawn), for which the T/C (dose: 18.75 mg/kg/injection, schedule: Q04DX004 (sc), vehicle: saline) was 169 % of control and the T/C (dose: 75.0 mg/kg/injection, schedule: Q04DX004 (sc), vehicle: saline) was 72 % of control.

As for `COC1=CC(=O)C(OC)=C(OC)C1=O`, the T/C runs as follows: (dose: 38.0 mg/kg/injection, schedule: Q04DX004 (sc), vehicle: saline with Tween-80) 78 % of control; under setting [6], 88 % of control; under setting [7], 89 % of control.
